Columns and labels:
[1] = system: human peripheral blood platelets adhering to VWF; assay: Adhesion ability of platelets to VWF-coated flow chamber; format: cell-based; conditions: Test Example 15; platelets incubated with 15 μM S-45457 and 100 μM CCCP, 37° C., 24 hours; wall shear rate 1500 S^−1
Procedure: Then, the supernatant was removed. The precipitate thus obtained was suspended in a Tyrode HEPES Ca(−) buffer, added with 100 μM CCCP and simultaneously added with one of either DMSO or 15 μM S-45457 and followed by incubation at 37° C. for 24 hours. Note that, in this experiment, one obtained by adding CCCP and DMSO and the subsequent incubation was prepared as a negative control, while one obtained without the addition or the incubation treatments was prepared as a positive control.
Further, after the incubation (in the case of the positive control, without incubation), the suspension was added with TMRE (tetramethylrhodamine ethyl ester perchlorate) having been diluted to 1/2000 and incubated at room temperature for 15 minutes to label the platelets with fluorescence. […]
Next, each of fluorescence-labelled platelet samples was added to and mixed with a whole blood sample of collected human peripheral blood anticoagulated with argatroban (thrombin inhibitor) so that the number of platelets of the fluorescence-labelled platelet sample was 10% of the whole blood platelets. […] The fluorescence-labelled platelets which formed a thrombus were visualized using an inverted stage epifluorescence video microscope system (DM IRB, manufactured by Leica). […] Further, a percentage of surface area covered by platelets was calculated using Image-J software (NIH Image). […]

[2] = system: human platelets in laser/hematoporphyrin-induced thrombus formation; assay: Thrombus formation model in NOG mice with biomolecular imaging (injected human platelets); format: in vivo, mouse; conditions: Test Example 16; platelets prepared with 15 μM S-45457 and 100 μM CCCP, 37° C., 24 hours, injected into NOG mice
Procedure: The maintaining effect of the compound (such as S-45457) according to the present invention on the adhesion ability of platelets, particularly adhesion ability of platelets to a blood vessel in vivo, was evaluated using a biomolecular imaging technique and a thrombus formation model developed by the present inventors.
Note that the thrombus formation model used in this Test Example induces thrombus formation as follows. Specifically, reactive oxygen species (ROS) are generated locally in a blood vessel by using laser irradiation along with hematoporphyrin, and so forth. This gives damage to vascular endothelial cells, and thereby platelets adhere to the blood vessel, so that a thrombus is formed. […]
First, platelets were prepared for injection into mice used as a model of thrombus formation. […] After the incubation (in the case of the positive control, without incubation), the number of platelets in the precipitate was counted. […] The suspension was then incubated at room temperature for 15 minutes to label the platelets with fluorescence. […]
Next, the thrombus formation model mouse was prepared. […] Then, platelets labelled with fluorescence as described above were injected into the NOG mouse so that the number of the platelets was 15% of the number of circulating platelets. […]

CC#CCOc1ccc(S(=O)(=O)CC(c2ccc(CNS(C)(=O)=O)cc2)N(O)C=O)cc1 (centres unmarked) [Compound I-4, N-{4-[2-(4-But-2-ynyloxybenzenesulfonyl)-1-(formylhydroxyamino)ethyl]benzyl}methanesulfonamide]
percentage of surface area covered by platelets [1]: high percentage of surface area covered by the platelets in comparison with the result of the negative control
percentage of the human-derived platelets contributing to the thrombus formation [2]: higher than that of the negative control
